The subject of one data set is ERK. As to the kind of experiment: ERK assay for cell growth-promoting activity (TGR assay), Swiss 3T3 fibroblast cells. The data set is classed as cell-based. The settings on record: tammar LAM corresponding to the bovine sample of Table 24. The procedure: (§1) Plasmids containing Tammar wallaby LAMs were directionally cloned into the expression vector pCMV Sport 6.0, and then transfected into the human kidney cell line HK293. A total of 1 μg of LAM-containing plasmid DNA and 10 ng of pEGFP-C1 plasmid was introduced into 70% confluent HK293 cells in 2 cm^2 wells containing 500 ul of opti-MEM-1 media. Transfection success was assessed by observing green fluorescence of cells by fluorescent microscopy. After 48 hours conditioned media containing the secreted polypeptide was collected and frozen at −20° C. The media containing the secreted polypeptides was then used directly in a variety of bioactivity assays. For the assays described below, samples of secreted polypeptides were aliquoted into individual wells of 96 or 384 well plates and stored, prior to assaying, either frozen or lyophilized.
(§2) A negative control created by transfection with an insertless vector was used in all assays. For the assays described in Examples 4A, 4B, 4C and 4D results for samples were in the form of relative fluorescence units (RFU) as described herein. […] In some cases, RFU less than two standard deviations from the mean were considered significant if the LAM sample in question produced a positive result in another assay.
Extracellular signal-regulated protein kinase (ERK) is a common and central signal transduction pathway component of tyrosine kinase receptor. Activation of ERK is indicative of an extracellular proliferation signal and provides an index of a growth promoting agent.
Swiss 3T3 fibroblast cells were plated into 384 well plates, grown to confluence and starved overnight with serum-free medium. Cells were then treated for 10 minutes with a LAM polypeptide prepared as described above. Cells were then lysed and assayed for activation of ERK. Samples were assessed for changes in the activity of ERK.
The results of ERK activation assays are shown in Table 6 as relative fluorescence units (RFU). […] These same samples are equated with LAM numbers as represented in Table 7. […]

A further data set deals with AGS cells. The data set can be described thus: Cell growth using bovine cathelicidin variants in AGS cells (SRB assay). The settings on record: 72 hours; for cell growth Replicate 3: -ve control 0.233; for cell growth Replicate 1: -ve control 0.247; for cell growth Replicate 4: -ve control 0.265; for cell growth Replicate 2: -ve control 0.316; for cell growth Mean: -ve control mean 0.265. More on the design: unit not given here. Type of data set: cell-based, human. The procedure: A cellular growth assay was performed using seven bovine cathelicidin (CATHL) variants, namely CATHL1, 4, and 6 which are known in the art (the relevant sequences can be obtained using the following hyperlink: http://www.ncbi.nlm.nih.gov/entrez/query.fcqi?db=unigene&cmd=search&term=cathelicidin) and bovine Cathelicidins 8, 9, 10 and 11 (being LAMs 32.8, 32.9, 32.10 and 32.11, respectively) as identified herein and which are derived from LAM 32. The bovine cathelicidin associated LAMs were derived by sequence comparison to the tammar polynucleotide sequence of LAM 32.
The growth rate of AGS cells was assessed in the presence of the cathelicidins. Equal numbers of human gastric epithelial AGS cells were cultured in either control media or media conditioned with bovine cathelicidins for 72 hours in a 1:10 dilution of serum and antibiotic-free Optimem. Cells were then fixed and a Sulforhodamine B (SRB) colorimetric assay was undertaken as described in Journal of Immunological Methods 208: 151-158, K. T. Papazisis, G. D. Geromichalos, K. A. Dimitriadis, A. H. Kortsaris (1997), ‘Optimization of the sulforhodamine B colorimetric assay’.
Briefly, cells were fixed directly by incubation with 10% trichloroacetic acid for 1 hour at 4° C., washed with water, air-dried overnight and then stained with 0.4% w/v sulforhodamine B, 1% acetic acid solution for 10 minutes at room temperature. Cell were again washed with 1% acetic acid and air-dried, then counted in triplicate.
For orientation: In SRB staining, fixed cells bind dye roughly in proportion to their protein.

The next data set concerns chicks. The data set can be described thus: Chick growth assay (in ovo injection, weight at hatching). The settings on record: for Chick weight: bovine polypeptides in conditioned media, 1 ml in ovo on day 16 of incubation, weighed on day of hatching, Saline 51.0. The data set is classed as in vivo. The procedure: FIG. 5. Chick growth assay by measuring weight. 10 LAMs (being bovine homologues having homology to specific Tammar ESTs), 3 known bovine cathelicidins, and four bovine cathelicidin variants were tested. Conditioned media containing a LAM polypeptides or bovine cathelicidins or variants thereof was diluted in a total of 1 ml of normal saline. Eggs on day 16 of incubation were injected with 1 ml of the media containing the into the broad end of the egg. Chicks were weighed on day of hatching. The overall condition of the chick was assessed including the possible presence of stumpy legs and/or loss of down feathers.
Conditioned media containing LAM polypeptides or bovine cathelicidins or variants thereof were diluted in a total of 1 ml of normal saline. Eggs on day 16 of incubation were injected in ovo with 1 ml of LAM polypeptides or bovine cathelicidins or variants thereof into the broad end of the egg. Chicks were weighed on day of hatching. Controls included saline only, or saline and 10 mg/ml of a peptide as a random peptide control.
As set out in Table 23, the left column indicates the polypeptide used in the assay while the right column contains chick weight in grams as a measurement of chick growth. Bolded numbers represent a chick(s) larger than the controls and more than 2 standard deviations from the mean. In addition, bolded numbers represent chicks that have been killed. The mean represents the weight of all the chicks tested within this experiment.

For data set [1], the system named is HSC-2 oral epithelial cells. As to the kind of experiment: Cell viability assay to assess anti- and pro-apoptotic effects (vinblastine, Alamar Blue). Type of data set: cell-based. The settings on record: HSC-2 cells. The procedure: as §1, §2
Vinblastine is a commonly used cytotoxic agent used in chemotherapy. It induces apoptosis in a wide variety of cell types. Caspase activation and DNA fragmentation are hallmarks of the apoptotic process.
Aliquots of the secreted polypeptide samples in 96 well plates were pipetted onto HSC-2 oral epithelial cells and the cells left for 24 hours. After this time, the cells were treated with vinblastine to induce apoptosis. After a further 48 hours, the cells were analyzed for survival using a vital dye, namely Alamar Blue (resazurin) fluorescent dye (TGR BioSciences Pty Ltd, Adelaide, Australia). This dye method is a TGR proprietary assay technology and as such would be known by a person skilled in the art. Internal controls for induction of cell death via apoptosis as well as assay performance were also included on each plate. Cell survival measurements with this technique reflected the degree of apoptosis.
(The colour change of resazurin is a common sign of viable cells or microbes.)

Another data set relates to p38 MAPK. The data set can be described thus: p38 MAPK assay of inflammatory activity in the presence of LPS, RAW macrophage cells. Type of data set: cell-based. The procedure:
as §1
A negative control created by transfection with an insertless vector was used in all assays. For the assays described in Examples 4A, 4B, 4C and 4D results for samples were in the form of relative fluorescence units (RFU) as described herein. […]
Activation of p38 MAPK was assessed in RAW macrophage cells in the presence of lipopolysaccharide (LPS), which is a potent stimulator of the immune system and which mimics bacterial infection, thereby providing a model system for inflammation. […]

As for “CATHL5: bovine cathelicidin 5 (known sequence) (GGLRSLGRKILRAWKKYGPIIVPIIRIG; UniProt P54229 132-159, looked up) [reference compound]”, the “tammar ERK activity” value with ERK is “yes”. Moreover, in the data set with AGS cells, the “cell growth Replicate 3” value is given as 0.382, the “cell growth Replicate 1” value is given as 0.423, the “cell growth Replicate 4” value is 0.415 and the “cell growth Replicate 2” value was 0.441. Also, in the data set with AGS cells, the “cell growth Mean” value is 0.415. Further, the Chick weight entry in the data set on chicks is “Killed”. In the data set with chicks (in ovo injection on day 16 of incubation), the “death / overall condition of chick” value is “caused death of chicks”.
In the case of “CATHL1: bovine cathelicidin 1, known in the art (RLCRIVVIRVCR; UniProt P22226 144-155, looked up) [reference compound]”, in the data set on ERK, the “tammar ERK activity” value was “yes”. In the data set with AGS cells, the “cell growth Replicate 3” value worked out at 0.303, the “cell growth Replicate 1” value came to 0.412, the “cell growth Replicate 4” value was 0.378 and the “cell growth Replicate 2” value came to 0.419. The “cell growth Mean” value in the data set on AGS cells is reported as 0.378. Further, the Chick weight with chicks is listed as 52.8 grams.
For the molecule “CATHL2: bovine cathelicidin listed under LAM32, sample number 15 (RFRPPIRRPPIRPPFYPPFRPPIRPPIFPPIRPPFRPPLGPFP; UniProt P19660 131-173, looked up)”, the “tammar ERK activity” value in the data set on ERK is listed as “yes”.

B1: LAM 17: FGL2: Fibrinogen like-1 (Table 24); tammar polypeptide SEQ ID NO 47, bovine SEQ ID NO 107 (protein, UniProt Q29RY7 16-441, looked up)
Fibroleukin: TYGFLVVANNETEEIKDEAAQNACRVRLESRGRCEEEGECPYQVNLPPLTIQLPKQFSRIEEVFKEVQNLKEIVNSLKKTCQDCKLQADDSRDPGRNGLLLPGTGAPGETGDNRVRELEGEVNKLSSDLKNAKEEIDVLQGRLEKLNLVNMNNIEQYVDSKVANLTFVVNSLDGKCSSKCPRQEQIQSLPVQQHLIYKDCSEYYTIGKRSSELYRVTPEPRNSSFEVFCDMETMAGGWTVLQARVDGSTNFTRTWQDYKVGFGNLRREFWLGNDKIHLLTKSKDMILRIDLEDFNGIKLYALYDHFYVANEFLKYRLHIGNYNGTAGDALRFSKHYNHDLKFFTTPDRDNDRYPSGNCGLYYSSGWWFDACLSANLNGKYYHQKYRGVRNGIFWGTWPGISEAQPGGYKSSFKEVKMMIRPKHFKP
For the molecule B1, in data set [1] (Alamar Blue, Mean RFU 1758076, SD RFU 108156), the “RFU (pro-apoptotic activity)” value was determined as 1478245 RFU. The “anti- or pro-apoptotic activity (RFU versus mean)” value in data set [1] (text summary of Tables 8-11) is given as “pro-apoptotic activity”. Besides, the “anti-inflammatory activity (RFU significantly below the mean)” value with p38 MAPK (RAW macrophage cells with LPS, text summary of Tables 14 and 15) is recorded as “anti-inflammatory activity”. In the data set with p38 MAPK (RAW macrophage cells, 30 minutes sample then LPS 30 minutes, Mean RFU 35980, SD RFU 4227, negative control 45833 RFU), the “RFU (p38 inhibition, anti-inflammatory activity)” value was 20814 RFU. Moreover, the Chick weight in the data set with chicks is recorded as 49.2 grams.

Values taken from patent US20110201105A1, “LACTATION-ASSOCIATED POLYPEPTIDES” (Dairy Australia Limited, priority 2007, published 2011).
